pIC50: −log10 of the molar value. Where two headings read alike, the source gives them in different places.
Key:
[1] = ADME solubility determination in PBS at pH 2.0 and pH 7.4; assay type: physicochemical; settings: for solubility at 24 h: phosphate buffered saline, 25 °C, thermodynamic from solid
Procedure, shortened: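 Solubility was read by LC-MS/MS on centrifuged supernatants, calibrated to a known-concentration standard and corrected for dilution. Compound, dried down from 10 mM DMSO stock, was equilibrated 24 h at 25° C with shaking in PBS at pH 2.0 or pH 7.4.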

USP1/UAF1 enzyme = USP1/UAF1 enzyme (Homo sapiens, UniProt O94782); assay: USP1/UAF1 deubiquitination assay (ubiquitin-rhodamine 110 substrate); assay type: biochemical; settings: read-out: USP1 IC50 (Ub-Rho)
USP1/UAF1 enzyme, sequence (O94782 whole entry): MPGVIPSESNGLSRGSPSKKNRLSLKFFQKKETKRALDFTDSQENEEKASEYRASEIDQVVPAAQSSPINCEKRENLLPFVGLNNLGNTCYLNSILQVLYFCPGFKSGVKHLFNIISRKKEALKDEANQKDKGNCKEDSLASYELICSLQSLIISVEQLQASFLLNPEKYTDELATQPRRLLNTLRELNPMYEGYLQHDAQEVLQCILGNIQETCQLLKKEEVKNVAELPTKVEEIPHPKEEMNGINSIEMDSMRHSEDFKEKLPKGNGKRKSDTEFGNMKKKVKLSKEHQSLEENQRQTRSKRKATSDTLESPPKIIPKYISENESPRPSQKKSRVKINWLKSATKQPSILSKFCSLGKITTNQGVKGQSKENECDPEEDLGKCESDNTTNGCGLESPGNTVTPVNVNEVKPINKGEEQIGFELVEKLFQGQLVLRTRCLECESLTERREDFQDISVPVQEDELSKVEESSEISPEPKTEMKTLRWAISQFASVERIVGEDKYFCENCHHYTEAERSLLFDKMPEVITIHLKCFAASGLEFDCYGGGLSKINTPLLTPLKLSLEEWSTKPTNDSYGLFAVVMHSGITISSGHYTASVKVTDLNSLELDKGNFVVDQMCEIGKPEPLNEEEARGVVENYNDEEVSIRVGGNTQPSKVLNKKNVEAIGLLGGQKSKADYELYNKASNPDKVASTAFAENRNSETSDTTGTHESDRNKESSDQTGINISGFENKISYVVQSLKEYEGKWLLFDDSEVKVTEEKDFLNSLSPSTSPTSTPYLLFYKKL
USP1/UAF1 enzyme, sequence (Q8TAF3 whole entry partner): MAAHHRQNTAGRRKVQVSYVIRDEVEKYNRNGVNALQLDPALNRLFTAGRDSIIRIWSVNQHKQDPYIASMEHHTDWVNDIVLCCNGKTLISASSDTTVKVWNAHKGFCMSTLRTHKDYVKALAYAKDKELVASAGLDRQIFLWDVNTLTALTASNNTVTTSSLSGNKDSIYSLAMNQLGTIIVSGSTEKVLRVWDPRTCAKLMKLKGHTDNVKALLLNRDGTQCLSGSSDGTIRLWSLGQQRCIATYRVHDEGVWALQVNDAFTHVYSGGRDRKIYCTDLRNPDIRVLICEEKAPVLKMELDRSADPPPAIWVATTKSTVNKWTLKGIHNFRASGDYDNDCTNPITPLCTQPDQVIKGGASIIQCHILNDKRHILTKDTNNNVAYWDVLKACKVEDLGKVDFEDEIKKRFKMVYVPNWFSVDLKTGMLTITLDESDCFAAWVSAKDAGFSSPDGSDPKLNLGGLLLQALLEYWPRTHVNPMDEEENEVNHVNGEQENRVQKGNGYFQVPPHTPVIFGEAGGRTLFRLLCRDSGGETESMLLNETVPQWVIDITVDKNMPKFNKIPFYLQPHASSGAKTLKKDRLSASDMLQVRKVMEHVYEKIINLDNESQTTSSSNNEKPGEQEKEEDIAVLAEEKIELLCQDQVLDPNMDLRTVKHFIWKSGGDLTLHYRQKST
Procedure, shortened: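 Cleavage of 150 nM ubiquitin-rhodamine 110 by 0.05 nM USP1/UAF1 was followed as fluorescence (Ex480/Em540, kinetic, 30 min) in Tris-HCl pH 7.8 buffer with EDTA, BSA, DTT and Tween-20. Compounds, top 10 μM, were preincubated with enzyme 10 min; % inhibition against no-enzyme and DMSO wells gave four-parameter IC50s.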

[2] = Liver microsomal metabolic stability, rat liver microsomes (RLM); settings: 1 μM compound, 1 mg/mL microsomes, NADPH; for half-life at 1 μM: rat, liver microsomes, t1/2 (min) in RLM
[3] = Liver microsomal metabolic stability, human liver microsomes (HLM); settings: for half-life at 1 μM: human, liver microsomes
[4] = test system: Ub-PCNA levels in the nucleus of ES2 cells (USP1 activity); assay: ES2 Ub-PCNA immunofluorescence (IF) assay; assay type: cell-based; settings: ES2 cells, 3 hours, Ub-PCNA immunofluorescence, read-out: USP1 IC50 (Ub-PCNA)
Procedure, shortened: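 AC50 derived from percent Ub-PCNA-positive nuclei, positivity set by a 95% cutoff from untreated-well intensities. Readout by imaging immunofluorescence (anti-Ub-PCNA, DAPI nuclear mask) after methanol fixation. Compound exposure: 3 h at 37° C, 0.3% DMSO final, on cells plated overnight.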

[5] = pH 2, aqueous buffer, PBS pH 2.0, 25° C., read-out: Solubility at pH 2.0
[6] = pH 7.4, aqueous buffer, PBS pH 7.4, 25° C., read-out: Solubility at pH 7.4

Q: With `COc1ncnc(C2CC2)c1-c1nc2n(n1)CCC(=O)N2[C@@H](C)c1ccc(-c2nc(C(F)(F)F)cn2C)c(F)c1` [Example 196] as the compound, how does the solubility at 24 h [1, 5] read?
A: Its solubility at 24 h is at least 10 µM.

Q: What about the solubility at 24 h [1, 6] of the same compound?
A: The solubility at 24 h was at least 10 µM.

Q: What about the pIC50 (USP1/UAF1 enzyme) of the same compound?
A: Its pIC50 is 6.30 to 7.00.

Q: What about the half-life at 1 μM [2] of the same compound?
A: Its half-life at 1 μM is over 25 min.

Q: And the half-life at 1 μM [3]?
A: Its half-life at 1 μM is under 25 min.

Q: What about the pIC50 ([4]; Homo sapiens, ES-2) of the same compound?
A: Its pIC50 is over 7.00.

Q: For `COc1ncnc(C2CC2)c1-c1nc2n(n1)CCC(=O)N2[C@H](C)c1ccc(-c2nc(C(F)(F)F)cn2C)c(F)c1` [Example 197], which solubility at 24 h [1, 5] is on record?
A: The solubility at 24 h was at least 10 µM.

Q: And the solubility at 24 h [1, 6]?
A: The solubility at 24 h was at least 10 µM.

Q: And the pIC50 (USP1/UAF1 enzyme)?
A: Its pIC50 is over 7.00.

Q: And the half-life at 1 μM [2]?
A: The half-life at 1 μM was over 25 min.

Q: What about the half-life at 1 μM [3] of the same compound?
A: Its half-life at 1 μM is over 25 min.

Q: What about the pIC50 ([4]; Homo sapiens, ES-2) of the same compound?
A: The pIC50 was over 7.00.

Q: With `COc1ncnc(C2CC2)c1-c1nc2n(n1)CCC(=O)N2[C@@H](C)c1ccc(-c2nc(C(F)(F)F)cn2C2CC2)cc1` [Example 200] as the compound, how does the solubility at 24 h [1, 5] read?
A: Its solubility at 24 h is at least 10 µM.

Q: And the solubility at 24 h [1, 6]?
A: The solubility at 24 h was at least 10 µM.

Q: And the pIC50 (USP1/UAF1 enzyme)?
A: Its pIC50 is 6.30 to 7.00.

Q: What about the half-life at 1 μM [2] of the same compound?
A: Its half-life at 1 μM is over 25 min.

Q: And the half-life at 1 μM [3]?
A: Its half-life at 1 μM is over 25 min.

Q: What about the pIC50 ([4]; Homo sapiens, ES-2) of the same compound?
A: Its pIC50 is over 7.00.

Q: Which solubility at 24 h [1, 5] does the source give for `COc1ncnc(C2CC2)c1-c1nc2n(n1)CCC(=O)N2[C@H](C)c1ccc(-c2nc(C(F)(F)F)cn2C2CC2)cc1` [Example 201] here?
A: Its solubility at 24 h is at least 10 µM.

Q: And the solubility at 24 h [1, 6]?
A: Its solubility at 24 h is at least 10 µM.

Q: And the pIC50 (USP1/UAF1 enzyme)?
A: The pIC50 was over 7.00.

Q: And the half-life at 1 μM [2]?
A: The half-life at 1 μM was over 25 min.

Q: What about the half-life at 1 μM [3] of the same compound?
A: The half-life at 1 μM was over 25 min.

Q: And the pIC50 ([4]; Homo sapiens, ES-2)?
A: Its pIC50 is over 7.00.

Q: With `COc1ncnc(C2CC2)c1-c1nc2n(n1)CCC(=O)N2[C@@H](C)c1ccc(-n2nc(C(F)(F)F)cc2C)c(F)c1` [Example 203] as the compound, how does the solubility at 24 h [1, 5] read?
A: Its solubility at 24 h is at least 10 µM.

Q: And the solubility at 24 h [1, 6]?
A: The solubility at 24 h was at least 10 µM.

Q: And the pIC50 (USP1/UAF1 enzyme)?
A: The pIC50 was 6.30 to 7.00.

Q: What about the half-life at 1 μM [2] of the same compound?
A: The half-life at 1 μM was over 25 min.

Q: And the half-life at 1 μM [3]?
A: The half-life at 1 μM was over 25 min.

Q: What about the pIC50 ([4]; Homo sapiens, ES-2) of the same compound?
A: Its pIC50 is 6.30 to 7.00.

Q: What does the source list for `COc1ncnc(C2CC2)c1-c1nc2n(n1)CCC(=O)N2[C@H](C)c1ccc(-n2nc(C(F)(F)F)cc2C)c(F)c1` [Example 204]?
A: solubility at 24 h [1, 5]: ≥ 10 µM; solubility at 24 h [1, 6]: ≥ 10 µM; pIC50 (USP1/UAF1 enzyme): > 7.00; half-life at 1 μM [2]: > 25 min; half-life at 1 μM [3]: > 25 min; pIC50 ([4]; Homo sapiens, ES-2): > 7.00

Q: Which solubility at 24 h [1, 5] does the source give for `COc1ncnc(C2CC2)c1-c1nc2n(n1)CCC(=O)N2[C@H](C)c1ccc(-c2nc(C(F)(F)F)c(Br)n2C)cc1` [Example 206] here?
A: Its solubility at 24 h is at least 10 µM.

Q: What about the solubility at 24 h [1, 6] of the same compound?
A: The solubility at 24 h was under 10 µM.

Q: What about the pIC50 (USP1/UAF1 enzyme) of the same compound?
A: Its pIC50 is over 7.00.

Q: What about the half-life at 1 μM [2] of the same compound?
A: Its half-life at 1 μM is over 25 min.

Q: What about the half-life at 1 μM [3] of the same compound?
A: The half-life at 1 μM was over 25 min.

Q: And the pIC50 ([4]; Homo sapiens, ES-2)?
A: The pIC50 was over 7.00.

Q: What does the source list for `COc1ncnc(C2CC2)c1-c1nc2n(n1)CCC(=O)N2Cc1ccc(-c2nc(C(F)(F)F)cn2C(C)C)c(F)c1OC` [Example 210]?
A: solubility at 24 h [1, 5]: ≥ 10 µM; solubility at 24 h [1, 6]: ≥ 10 µM; pIC50 (USP1/UAF1 enzyme): > 7.00; half-life at 1 μM [2]: > 25 min; half-life at 1 μM [3]: > 25 min; pIC50 ([4]; Homo sapiens, ES-2): > 7.00

Q: What does the source list for `CCn1cc(C(F)(F)F)nc1-c1ccc([C@H](C)N2C(=O)CCn3nc(-c4c(OC)ncnc4C4CC4)nc32)cc1Cl` [Example 211]?
A: solubility at 24 h [1, 5]: ≥ 10 µM; solubility at 24 h [1, 6]: < 10 µM; pIC50 (USP1/UAF1 enzyme): > 7.00; half-life at 1 μM [2]: < 25 min; half-life at 1 μM [3]: > 25 min; pIC50 ([4]; Homo sapiens, ES-2): > 7.00

Q: Which “Solubility at pH 2.0 (μM)” value ([1]; PBS pH 2.0, 25° C., 24 hours) does the source give for `CCn1cc(C(F)(F)F)nc1-c1ccc([C@H](C)N2C(=O)CCn3nc(-c4c(OC)ncnc4C4CC4)nc32)cc1Cl` [Example 212] here?
A: Its value is “++ (“++” indicates 10 μM or greater)”.

Q: And the “Solubility at pH 7.4 (μM)” value ([1]; PBS pH 7.4, 25° C., 24 hours)?
A: The value was “++ (“++” indicates 10 μM or greater)”.

Q: And the pIC50 (USP1/UAF1 enzyme)?
A: Its pIC50 is over 7.00.

Q: And the “t1/2 (min) in RLM” value [2]?
A: The value was “++ (“++” indicates 25 minutes greater)”.

Q: What about the “t1/2 (min) in HLM” value ([3]; human liver microsomes, 1 μM compound, 1 mg/mL microsomes, NADPH) of the same compound?
A: Its value is “++ (“++” indicates 25 minutes greater)”.

Q: What about the pIC50 [4] of the same compound?
A: The pIC50 was over 7.00.

Q: For `COc1nccc(C2CC2)c1-c1nc2n(n1)CCC(=O)N2Cc1ccc(-c2nc(C(F)(F)F)cn2C(C)C)c(F)c1` [Example 213], which solubility at 24 h [1, 5] is on record?
A: The solubility at 24 h was under 10 µM.

Q: And the solubility at 24 h [1, 6]?
A: Its solubility at 24 h is under 10 µM.

Q: What about the pIC50 (USP1/UAF1 enzyme) of the same compound?
A: Its pIC50 is over 7.00.

Q: And the half-life at 1 μM [2]?
A: Its half-life at 1 μM is over 25 min.

Q: And the half-life at 1 μM [3]?
A: The half-life at 1 μM was over 25 min.

Q: And the pIC50 ([4]; Homo sapiens, ES-2)?
A: The pIC50 was 6.30 to 7.00.

Q: Which solubility at 24 h [1, 5] does the source give for `COc1c(CN2C(=O)CCn3nc(-c4c(Cl)cnn4C(C)C)nc32)ccc(-c2nc(C(F)(F)F)cn2C(C)C)c1F` [Example 216] here?
A: Its solubility at 24 h is under 10 µM.

Q: And the solubility at 24 h [1, 6]?
A: Its solubility at 24 h is under 10 µM.

Q: And the pIC50 (USP1/UAF1 enzyme)?
A: The pIC50 was over 7.00.

Q: What about the half-life at 1 μM [2] of the same compound?
A: The half-life at 1 μM was over 25 min.

Q: What about the half-life at 1 μM [3] of the same compound?
A: The half-life at 1 μM was over 25 min.

Q: What about the pIC50 ([4]; Homo sapiens, ES-2) of the same compound?
A: The pIC50 was 6.30 to 7.00.

Q: What does the source list for `CCn1cc(C(F)(F)F)nc1-c1ccc(CN2C(=O)CCn3nc(-c4c(OC)ncnc4C4CC4)nc32)c(OC)c1F` [Example 217]?
A: solubility at 24 h [1, 5]: ≥ 10 µM; solubility at 24 h [1, 6]: ≥ 10 µM; pIC50 (USP1/UAF1 enzyme): > 7.00; half-life at 1 μM [2]: > 25 min; half-life at 1 μM [3]: > 25 min; pIC50 ([4]; Homo sapiens, ES-2): > 7.00

Q: Which solubility at 24 h [1, 5] does the source give for `Cc1cnn(C(C)C)c1-c1nc2n(n1)CCCN2Cc1ccc(-c2nc(C(F)(F)F)cn2C)cc1` [Example 221, 2-(1-isopropyl-4-methyl-1H-pyrazol-5-yl)-4-(4-(1-methyl-4-(trifluoromethyl)-1H-imidazol-2-yl)benzyl)-4,5,6,7-tetrahydro-[1,2,4]triazolo[1,5-α]pyrimidine] here?
A: Its solubility at 24 h is at least 10 µM.

Q: What about the solubility at 24 h [1, 6] of the same compound?
A: Its solubility at 24 h is at least 10 µM.

Q: What about the pIC50 (USP1/UAF1 enzyme) of the same compound?
A: Its pIC50 is over 7.00.

Q: And the half-life at 1 μM [2]?
A: Its half-life at 1 μM is under 25 min.

Q: And the half-life at 1 μM [3]?
A: The half-life at 1 μM was under 25 min.

Q: And the pIC50 ([4]; Homo sapiens, ES-2)?
A: The pIC50 was over 7.00.
